US7875607B2, “7,8-bicycloakyl-chroman derivatives” (Ampere Life Sciences, Inc., priority 2004, dated 2011)
Each block holds one compound with its values, some of them ahead of it.

What was measured:
Assay type in all cases: cell-based
[1] = tested on: dopaminergic neuronal cell line; assay: High glutamate-induced oxidative stress assay (HGOS); details: Mus musculus; 30 mM glutamate, 16 hrs; read-out: EC50, protection against HGOS cell injury and cell death
Outline: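 Mouse dopaminergic cells (passage ≤ p11) were grown 72 h at 33 °C, washed in HBSS, then exposed 16 h at 37 °C to compounds in DMEM-No Glu with 1 mM glucose and 30 mM glutamate. Surviving cells were stained 30 min with 5 μM Cell Tracker Green and fluorescence read at 485/538 nm.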

[2] = tested on: ELAM (E-selectin) expression in endothelial cells; assay: Cell-ELAM assay; details: 10 μg/ml LPS and 100 pg/ml IL-1β, 6 hours
Description: In vitro cell-based assays for inflammation are well known in the art, for example e-selectin (also named Endothelial Leukocyte Adhesion Molecule or ELAM) or C-reactive protein (CRP). The ELAM assay measures in vitro activity of the test compounds in reducing expression of ELAM in activated endothelial cells. Briefly, endothelial cells are […] by adding known activators such as lipopolysaccharides, TNF or IL-1, alone or in some combination. Activated cells produce ELAM, which can be measured using, for example, an E-selectin monoclonal antibody-based ELISA assay. Similarly the CRP assay measures in vitro activity of test compounds in reducing expression of CRP in Human Hep3B epithelial cells. The activated cells produce CRP, which can be measured with a CRP ELISA assay.
Endothelial-Leukocyte Adhesion Molecule (ELAM), also known as E-selectin, was expressed on the surface of endothelial cells. In this assay, lipopolysaccharide (LPS) and IL-1β were used to stimulate the expression of ELAM; test agents were tested for their abilities to reduce this expression, in accordance with studies showing that reduction of leukocyte adhesion to endothelial cell surface was associated with decreased cellular damage (e.g., Takada, M., Et al., Transplantation 64: 1520-25, 1997; Steinberg, J. B., et al., J. Heart Lung Trans. 13:306-313, 1994).
Endothelial cells may be selected from any of a number of sources and cultured according to methods known in the art; including, for example, coronary artery endothelial cells, human brain microvascular endothelial cells (HBMEC; Hess, D. C., et al., Neurosci. Lett. 213(1): 37-40, 1996), or lung endothelial cells. Cells were conveniently cultured in 96-well plates. Cells were stimulated by adding a solution to each well containing 10 μg/ml LPS and 100 pg/ml IL-1β for 6 hours in the presence of test agent (specific concentrations and time may be adjusted depending on the cell type) Treatment buffer was removed and replaced with pre-warmed Fixing Solution® (100 μl/well) for 25 minutes at room temperature. Cells were then washed 3×, then incubated with Blocking Buffer (PBS+2% FBS) for 25 minutes at room temperature. Blocking Buffer containing Monoclonal E-Selectin Antibody (1:750, Sigma Catalog # S-9555) was added to each well. Plates were sealed and stored at 4° overnight. Plates were washed 4× with 160 μL Blocking Buffer per well. Second Antibody-HRP diluted 1:5000 in Blocking Buffer was then added (100 μL/well), and plates were incubated at room temperature (protected from light) for two hours. Plates were then washed 4× with Blocking Buffer before addition of 100 μL of ABTS Substrate solution at room temperature (Zymed, Catalog # 00-2024). Wells were allowed to develop for 35 minutes, before measurement at 402 nm in a Fluoroskan® Reader with shake program for 10 seconds. Positive results were recorded as a decrease in ELAM concentration in tested wells, as compared to control wells.

[3] = tested on: LTB4 release from MPRO cell line; assay: LTB4-cell assay; details: Mus musculus; differentiated MPRO cells, 1 μM A23187, 1 hour; read-out: EC50, inhibition of LTB4
Outline: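 Mouse MPRO cells differentiated 72 hours with 10 μM all-trans retinoic acid, then stimulated 1 hour at 37° C with 1 μM A23187 plus compound (5 concentrations from 10 μM, quadruplicate). Supernatant LTB4 measured by competitive EIA; unstimulated cells as negative control.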

- EC50 [2]: ≤ 30 µM
Compound: CC(C)=CCc1c(O)c2c(c3c1CCC(C)(C)O3)C1CCC2C1 (centres unmarked) [2,2-Dimethyl-5-(3-methyl-but-2-enyl)-3,4,7,8,9,10-hexahydro-7,10-methano-2H-benzo[h]chromen-6-ol]
- EC50 [1]: ≤ 1 µM

Compound: CC1(CCCSc2nccs2)CCc2cc(O)c3c(c2O1)C1CCC3C1 (centres unmarked) [2-Methyl-2-[3-(thiazol-2-ylsulfanyl)-propyl]-3,4,7,8,9,10-hexahydro-7,10-methano-2H-benzo[h]chromen-6-ol]
- EC50 [1]: ≤ 1 µM
- EC50 [2]: ≤ 30 µM
- EC50 [3]: ≤ 5 µM

Compound: CC(C)CSCCCC1(C)CCc2cc(O)c3c(c2O1)C1CCC3C1 (centres unmarked) [2-(3-isobutylsulfanyl-propyl)-2-methyl-3,4,7,8,9,10-hexahydro-7,10-methano-2H-benzo[h]chromen-6-ol]
- EC50 [1]: ≤ 1 µM
- EC50 [2]: ≤ 30 µM
- EC50 [3]: ≤ 5 µM

- EC50 [2]: ≤ 30 µM
Compound: CC(C)CCc1c(O)c2c(c3c1CCC(C)(C)O3)C1CCC2C1 (centres unmarked) [2,2-Dimethyl-5-(3-methyl-butyl)-3,4,7,8,9,10-hexahydro-7,10-methano-2H-benzo[h]chromen-6-ol]
- EC50 [1]: ≤ 1 µM

Compound: CC1(CCCCl)CCc2cc(O)c3c(c2O1)C1CCC3C1 (centres unmarked) [2-(3-Chloro-propyl)-2-methyl-3,4,7,8,9,10-hexahydro-7,10-methano-2H-benzo[h]chromen-6-ol]
- EC50 [1]: ≤ 1 µM
- EC50 [2]: ≤ 30 µM
- EC50 [3]: ≤ 5 µM

Compound: CC1(C)C=Cc2cc(O)c3c(c2O1)C1CCC3CC1 [2,2-Dimethyl-7,8,9,10-tetrahydro-7,10-ethano-2H-benzo[h]chromen-6-ol]
- EC50 [1]: ≤ 1 µM
- EC50 [3]: ≤ 5 µM

Compound: CC1(C)CCc2cc(O)c3c(c2O1)C1CCC3CC1 [2,2-Dimethyl-3,4,7,8,9,10-hexahydro-7,10-ethano-2H-benzo[h]chromen-6-ol]
- EC50 [2]: ≤ 30 µM
- EC50 [3]: ≤ 5 µM
